According to PMC7281206, “Cysteine Cathepsins Inhibition Affects Their Expression and Human Renal Cancer Cell Phenotype” (Cancers, 2020):
“Also recorded” adds a separate entry of the source. *: point of attachment. CH2F = FC*

Assays:
LAMP-1 in A498 cells = assay: LAMP-1 protein expression (western blot, confocal microscopy), A498; type: cell-based, human; details: 20 μM
Description: Figure 7 Effect of the peptides on LAMP-1 protein expression: (a) Western blotting analysis of LAMP-1 after treatment with PLVE and VLPE (20 μM) for 24, 48, and 72 h in 769-P cells. (b) Confocal microscopy evaluation of LAMP-1 expression after 48 and 72 h of treatment with PLVE and VLPE (20 μM) in 769-P cells. (c) Western blotting analysis of LAMP-1 after treatment with PLVE and VLPE (20 μM) for 24, 48, and 72 h in A498 cells. (d) Confocal microscopy evaluation of LAMP-1 expression after 48 and 72 h of treatment with PLVE and VLPE (20 μM) in A498 cells. Data are represented as mean ± SD of at least three replicates. Significance was calculated through one-way ANOVA followed by Dunnet’s test. * = p < 0.05, ** = p < 0.01, *** = p < 0.001. Cells were seeded in RPMI containing 10% FBS and cultured for 24 h. Next, 30 µM of inhibitors were added to the culture medium and incubated for 24, 48, and 72 h. Control cells were treated with 0.01% DMSO. At all time points the samples were lysed in 50 mM Tri-HCl (pH 8.0), 100 mM NaCl, 0.5% NP-40, 1% Triton X-100, 1× protease inhibitor cocktail (ThermoFisher, Waltham, MA, USA). The 50 µg of protein lysates were separated by electrophoresis on a 12% SDS-PAGE gel and transferred to the PFDF membranes. The expression of cysteine Cts, LAMP-1, E-cadherin, and SNAIL1 were identified by a reaction with specific primary antibodies (CtsB-Ab190077, Abcam, UK; CtsL-Ab95154, Abcam, UK; CtsW Ab191083; LAMP-1- Ab24170, Abcam, UK; SNAIL1 Ab216347, Abcam, UK and e-cadherin-612131, BD Sciences Franklin Lakes, NJ, USA) which were resuspended in 5% non-fat milk in PBST (all Cts 1:3000, LAMP-1, SNAIL1 and E-cadherin 1:1000) and incubated O/N. The next day, the membranes were washed three times with PBST and incubated for 1 h with secondary antibodies (P-GAR Iss (Goat pAb to rabbit IgG (HRP), Abcam, UK or Rabbit Ab to mouse, Abcam, UK; both 1:5000) in 5% non-fat milk in PBST. After an additional wash (three times with PBS), reactive bands were detected by chemiluminescence (Bio-Rad, Irvine, CA, USA). As a loading control, the membranes were incubated with a polyclonal anti-tubulin antibody (1:5000; Ab52866, Abcam, UK) identically. The cells were treated for 48 and 72 h, then were fixed in 4% PFA/PBS for 15 min and permeabilized in 0.25% Triton®X-100 for 10 min. After blocking the non-specific sites in 2% BSA/PBS-T, the immunofluorescence was performed overnight with primary antibody anti-LAMP-1 (1:100, Abcam, Eugene, OR, USA) incubation, followed by incubation with the appropriate fluorophore-labeled secondary antibody Donkey anti-Rabbit IgG (H+L) ReadyProbes™, Alexa Fluor 488 (1:500; ThermoFisher, USA). […]

LAMP-1 in 769-P cells = assay: LAMP-1 protein expression (western blot), 769-P; type: cell-based, human; details: 20 μM, 24, 48, 72 h
Description: Figure 7 Effect of the peptides on LAMP-1 protein expression: (a) Western blotting analysis of LAMP-1 after treatment with PLVE and VLPE (20 μM) for 24, 48, and 72 h in 769-P cells. (b) Confocal microscopy evaluation of LAMP-1 expression after 48 and 72 h of treatment with PLVE and VLPE (20 μM) in 769-P cells. (c) Western blotting analysis of LAMP-1 after treatment with PLVE and VLPE (20 μM) for 24, 48, and 72 h in A498 cells. (d) Confocal microscopy evaluation of LAMP-1 expression after 48 and 72 h of treatment with PLVE and VLPE (20 μM) in A498 cells. Data are represented as mean ± SD of at least three replicates. Significance was calculated through one-way ANOVA followed by Dunnet’s test. * = p < 0.05, ** = p < 0.01, *** = p < 0.001. Cells were seeded in RPMI containing 10% FBS and cultured for 24 h. Next, 30 µM of inhibitors were added to the culture medium and incubated for 24, 48, and 72 h. Control cells were treated with 0.01% DMSO. At all time points the samples were lysed in 50 mM Tri-HCl (pH 8.0), 100 mM NaCl, 0.5% NP-40, 1% Triton X-100, 1× protease inhibitor cocktail (ThermoFisher, Waltham, MA, USA). The 50 µg of protein lysates were separated by electrophoresis on a 12% SDS-PAGE gel and transferred to the PFDF membranes. […] After an additional wash (three times with PBS), reactive bands were detected by chemiluminescence (Bio-Rad, Irvine, CA, USA). […]

| Substance | LAMP-1 protein expression (LAMP-1 in A498 cells; 72 h) | LAMP-1 protein expression (LAMP-1 in A498 cells; first 48 h) | LAMP-1 protein expression (LAMP-1 in 769-P cells) |
| --- | --- | --- | --- |
| Ac-PLVE-CH2F [Ac-PLVE-FMK] | substantial recovery at 72 h, reaching values slightly higher than CTRL levels | significantly affected during the first 48 h | significantly increased the expression of this lysosomal biomarker at all the considered time points, reaching significant peaks at 48 h of treatment |
| Ac-VLPE-CH2F [Ac-VLPE-FMK] | substantial recovery at 72 h, reaching values slightly higher than CTRL levels | significantly affected during the first 48 h | significantly increased the expression of this lysosomal biomarker at all the considered time points, reaching significant peaks at 48 h of treatment; also recorded: more efficient than Ac-PLVE-FMK in increasing the expression of LAMP-1 |
